We go through 17 molecules from patent publication US4916135A, “N-heteroaryl-4-quinolinamines” (priority 1989, dated 1990).

Structures can show the parent of a compound that is named as a salt. Where two headings read alike, the source gives them in different places.

For experiment [1], the system named is 2-phenyl-1,4-benzoquinone-induced writhing. The experiment in a line: 2-phenyl-1,4-benzoquinone-induced writhing (PQW) test in mice (analgesic activity). Particulars: for inhibition in vivo at 20 mg/kg: Mus musculus, sc, read-out: PQW Percent inhibition. Type of experiment: in vivo. How it is done: Compounds I of the present invention are useful as analgesic agents due to their ability to alleviate pain in mammals. […] Exptl. Biol. Med., 95, 729 (1957)].
The results of some of the compounds of this invention (expressed in terms of percent inhibition at 20 mg/kg, s.c.) are shown in Table 1 along with that of a prior art compound.

The subject of experiment [2] is Scopolamine Induced Memory Deficit. Description: scopolamine-induced Dark Avoidance Assay. Type of experiment: in vivo. The conditions noted are these: s.c., mice, 24 hours. How it is done: In this assay mice are tested for their ability to remember an unpleasant stimulus for a period of 24 hours. A mouse is placed in a chamber that contains a dark compartment; a strong incandescent light drives it to the dark compartment, where an electric shock is administered through metal plates on the floor. The animal is removed from the testing apparatus and tested again, 24 hours later, for the ability to remember the electric shock.
If scopolamine, an anticholinergic that is known to cause memory impairment, is administered before an animal's initial exposure to the test chamber, the animal re-enters the dark compartment shortly after being placed in the test chamber 24 hours later. This effect of scopolamine is blocked by an active test compound, resulting in a greater interval before re-entry into the dark compartment.
The results for an active compound are expressed as the percent of a group of animals in which the effect of scopolamine is blocked, as manifested by an increased interval between being placed in the test chamber and re-entering the dark compartment.
Test results of scopolamine-induced Dark Avoidance Assay for representative compounds of this invention are presented in Table 2 along with that of a reference compound.

For the molecule `CCCN(c1ccnc2cc(Cl)ccc12)n1cccc1C=O` [1-[(7-Chloro-4-quinolinyl)propylamino]-1H-pyrrole-2-carboxaldehyde], the inhibition in vivo at 20 mg/kg in experiment [1] (at 20 mg/kg, s.c., mice) came out at 31%.

`CCCN(c1ccnc2cc(Cl)ccc12)n1ccc(C=O)c1` [1-[(7-Chloro-4-quinolinyl)propylamino]-1H-pyrrole-3-carboxaldehyde]: the inhibition in vivo at 20 mg/kg in experiment [1] (at 20 mg/kg, s.c., mice) came to 42%.

Regarding `C#CCn1ccc(=Nn2cccc2)c2ccc(Cl)cc21` [7-Chloro-1-(2-propynyl)-N-(1H-pyrrol-1-yl)-4(1H)-quinolinimine], the inhibition in vivo at 20 mg/kg in experiment [1] (at 20 mg/kg, s.c., mice) was found to be 48%.

For `CCN(CC)Cc1cccn1Nc1ccnc2cc(Cl)ccc12` [7-Chloro-N-(2-diethylaminomethyl-1H-pyrrol-1-yl)-4-quinolinamine], the inhibition in vivo at 20 mg/kg in experiment [1] (at 20 mg/kg, s.c., mice) was 55%.

Turning to `Clc1ccc2c(Nn3cccc3CN3CCCCC3)ccnc2c1` [7-Chloro-N-[2-(1-piperidinyl)methyl-1H-pyrrol-1-yl]-4-quinolinamine], the inhibition in vivo at 20 mg/kg in experiment [1] (at 20 mg/kg, s.c., mice) is 35%.

`CCCN(c1ccnc2cc(Cl)ccc12)n1cccc1.O=C(O)/C=C\C(=O)O` [7-Chloro-N-propyl-N-(1H-pyrrol-1-yl)-4-quinolinamine maleate]: the inhibition in vivo at 20 mg/kg in experiment [1] (at 20 mg/kg, s.c., mice) was 42%. Moreover, in experiment [2] (0.31 mg/kg of body weight), the “% of Animals with Scopolamine Induced Memory Deficit Reversal” value (“% of Animals” below) is 20%.

In the case of `c1ccc2c(c1)ccn2Nc1ccnc2ccccc12` [N-(1H-Indol-1-yl)-4-quinolinamine maleate], the inhibition in vivo at 20 mg/kg in experiment [1] (at 20 mg/kg, s.c., mice) came out at 32%.

With `Cl.c1ccc2c(Nn3cccc3)c3c(nc2c1)CCCC3` [N-(1H-Pyrrol-1-yl)-1,2,3,4-tetrahydro-9-acridinamine hydrochloride], in experiment [1], the inhibition in vivo at 20 mg/kg worked out at 43%. The “% of Animals” value in experiment [2] (0.63 mg/kg of body weight) came to 20%.

With `Cl.c1ccc2c(Nn3cccc3)ccnc2c1` [N-(1H-Pyrrol-1-yl)-4-quinolinamine hydrochloride], the inhibition in vivo at 20 mg/kg in experiment [1] (at 20 mg/kg, s.c., mice) was 26%. Moreover, the “% of Animals” value in experiment [2] (0.16 mg/kg of body weight) amounted to 47%.

For `Cl.FC(F)(F)c1ccc2c(Nn3cccc3)ccnc2c1` [N-(1H-Pyrrol-1-yl)-7-trifluoromethyl-4-quinolinamine hydrochloride], in experiment [1] (at 20 mg/kg, s.c., mice), the inhibition in vivo at 20 mg/kg came to 48%. For the same molecule, the “% of Animals” value in experiment [2] (1.25 mg/kg of body weight) turned out to be 40%.

For `Cc1cn(Nc2ccnc3ccccc23)c2ccccc12` [N-(3-Methyl-1H-indol-1-yl)-4-quinolinamine hydrochloride], the inhibition in vivo at 20 mg/kg in experiment [1] (at 20 mg/kg, s.c., mice) amounted to 44%.

On to `CCCN(c1c2c(nc3ccccc13)CCCC2)n1cc(C)c2ccccc21` [N-(3-Methyl-1H-indol-1-yl)-N-propyl-1,2,3,4-tetrahydro-9-acridinamine], for which the inhibition in vivo at 20 mg/kg in experiment [1] (at 20 mg/kg, s.c., mice) amounted to 42%.

`c1ccc2c(Nn3c4ccccc4c4ccccc43)ccnc2c1` [N-(4-Quinolinyl)-9H-carbazol-9-amine hydrochloride]: the inhibition in vivo at 20 mg/kg in experiment [1] (at 20 mg/kg, s.c., mice) was determined as 30%.

Consider `CCCN(c1ccnc2ccccc12)n1cccc1` [N-Propyl-N-(1H-pyrrol-1-yl)-4-quinolinamine], for which the inhibition in vivo at 20 mg/kg in experiment [1] (at 20 mg/kg, s.c., mice) is 33%. Moreover, the “% of Animals” value in experiment [2] (0.16 mg/kg of body weight) turned out to be 33%.

As to `CCCN(c1ccnc2ccccc12)n1c2ccccc2c2ccccc21` [N-Propyl-N-(4-quinolinyl)-9H-carbazol-9-amine], the inhibition in vivo at 20 mg/kg in experiment [1] (at 20 mg/kg, s.c., mice) amounted to 55%.

Turning to `CNC(=O)Oc1ccc2c(c1)[C@]1(C)CCN(C)[C@@H]1N2C` [Physostigmine, reference compound], the “% of Animals” value in experiment [2] (0.31 mg/kg of body weight) came out at 20%.

Take Propoxyphene [reference compound]: the “PQW Percent inhibition” value in experiment [1] (at 3.9 mg/kg, s.c., mice, reference compound) is reported as 50%.
